Laboratory results as given in publication PMC10759932 (Nature cell biology, 2023).

How the values were obtained:
S. pombe Hem25p = S. pombe Hem25p (Schizosaccharomyces pombe, UniProt Q9P6N6); conditions: whole E. coli cells; labelled compound
PcaK = molecular target: T1, PcaK (Pseudomonas putida, UniProt Q51955); test: radiolabelled uptake into E. coli cells; format: cell-based; conditions: 50 μM 4-HB; whole E. coli cells; labelled compound
T1 sequence (Q51955 1-448): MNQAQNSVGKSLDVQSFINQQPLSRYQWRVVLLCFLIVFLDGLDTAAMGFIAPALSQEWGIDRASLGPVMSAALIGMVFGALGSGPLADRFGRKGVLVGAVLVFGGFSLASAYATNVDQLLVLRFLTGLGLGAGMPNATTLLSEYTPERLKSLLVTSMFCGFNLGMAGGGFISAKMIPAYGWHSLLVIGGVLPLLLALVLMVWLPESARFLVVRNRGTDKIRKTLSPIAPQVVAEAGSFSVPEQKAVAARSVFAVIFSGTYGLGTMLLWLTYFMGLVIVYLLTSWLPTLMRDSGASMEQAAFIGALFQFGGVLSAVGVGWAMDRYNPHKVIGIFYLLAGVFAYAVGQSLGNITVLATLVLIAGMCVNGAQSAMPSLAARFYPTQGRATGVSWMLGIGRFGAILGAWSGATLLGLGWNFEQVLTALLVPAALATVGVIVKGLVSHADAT

Chain of S. pombe Hem25p (Q9P6N6 whole entry): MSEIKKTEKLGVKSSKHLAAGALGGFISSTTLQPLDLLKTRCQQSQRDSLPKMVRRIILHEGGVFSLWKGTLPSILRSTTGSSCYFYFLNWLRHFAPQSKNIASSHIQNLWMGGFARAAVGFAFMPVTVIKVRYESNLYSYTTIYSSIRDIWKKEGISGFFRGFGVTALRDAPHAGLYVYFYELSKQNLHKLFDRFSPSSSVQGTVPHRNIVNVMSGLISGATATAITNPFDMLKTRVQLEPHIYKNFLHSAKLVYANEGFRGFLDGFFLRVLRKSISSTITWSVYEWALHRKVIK

SMILES	radiolabelled uptake into E. coli cells (S. pombe Hem25p)	radiolabelled uptake into E. coli cells (PcaK)
C=C(C)CCOP(=O)(O)OP(=O)(O)O [IPP]	Hem25p from S. pombe and S. cerevisiae	
O=C(O)c1ccc(O)cc1 [4-HB]		Uptake of 4-HB was only seen when the known bacterial 4-HB transporter PcaK was expressed
